Measurements as given in ChEMBL document CHEMBL5543130, “Design, Synthesis, and In Vivo Evaluation of Isosteviol Derivatives as New SIRT3 Activators with Highly Potent Cardioprotective Effects” (J Med Chem, 2024).
Values after ≈ are worked out from the molar mass of the structure shown. Active and inactive are the calls of the source. The rule behind the calls is not given here.

Key:
[1] = Toxicity in zebrafish embryos assessed as survival at upto 40 uM fertilized for 24 hrs followed by compound administration for 72 hrs and measured at 96 hrs post fertilization; parameters: species or system Danio rerio; details: in vivo
Danio rerio [2] = test: Cardioprotective activity against doxorubicin-induced Zebrafish cardiomyopathy model assessed as survival rate at 5 to 15 uM fertilized for 24 hrs followed by compound administration for 72 hrs and measured at 96 hrs post fertilization by inverted fluorescence microscopic analysis; format: functional; details: dose 5-15 µM
Danio rerio [3] = test: Cardioprotective activity against doxorubicin-induced Zebrafish cardiomyopathy model assessed as survival rate at 5 uM fertilized for 24 hrs followed by compound administration for 72 hrs and measured at 96 hrs post fertilization by inverted fluorescence microscopic analysis; format: functional; details: Danio rerio
[4] = Water solubility of the compound measured for 24 hrs by HPLC analysis; format: physicochemical
Danio rerio [5] = test: Cardioprotective activity against doxorubicin-induced Zebrafish cardiomyopathy model at 5 to 15 uM fertilized for 24 hrs followed by compound administration for 72 hrs and measured at 96 hrs post fertilization by inverted fluorescence microscopic analysis; format: functional, organism-based; details: dose 5-15 µM
Danio rerio [6] = test: Cardioprotective activity against doxorubicin-induced Tg(cmlc2: GFP) Zebrafish assessed as […] at 10 uM measured at 72 hrs post fertilization; format: functional, organism-based
Danio rerio [7] = test: Cardioprotective activity against doxorubicin-induced Zebrafish cardiomyopathy model assessed as survival rate at 10 uM fertilized for 24 hrs followed by compound administration for 72 hrs and measured at 96 hrs post fertilization by inverted fluorescence microscopic analysis; format: functional
Danio rerio [8] = organism: Danio rerio; test: Cardioprotective activity against doxorubicin-induced Tg(cmlc2: GFP) Zebrafish assessed as restoration of normal heart structure at 10 uM measured at 72 hrs post fertilization; format: functional, organism-based
Danio rerio [9] = test: Cardioprotective activity against doxorubicin-induced Zebrafish cardiomyopathy model assessed as survival rate at 15 uM fertilized for 24 hrs followed by compound administration for 72 hrs and measured at 96 hrs post fertilization by inverted fluorescence microscopic analysis; format: functional

C[C@@]12CC[C@@H]3[C@@](CC[C@H]4[C@@]3(C)CCC[C@@]4(C)C(=O)N3CCN(C(=O)c4ccccc4C(=O)O)CC3)(CC1=O)C2
Activity [1]: Non-Toxic
Survival (Danio rerio [2]): 50%
survival at 5 µM (Danio rerio [3]): 50%
solubility at 24 h [4]: 940 µg/mL (≈ 1760 µM)

CC(C)(CC(=O)O)C(=O)N1CCN(C(=O)[C@]2(C)CCC[C@@]3(C)[C@@H]4CC[C@@]5(C)C[C@]4(CC[C@@H]32)CC5=O)CC1
Activity (Danio rerio [5]): Active

C[C@@]12CC[C@@H]3[C@@](CC[C@H]4[C@@]3(C)CCC[C@@]4(C)C(=O)O)(CC1=O)C2 [ISOSTEVIOL]
Activity [1]: Non-Toxic
Activity (Danio rerio [6]): Active
Activity (Danio rerio [5]): Active
survival at 10 µM (Danio rerio [7]): 43%
Activity (Danio rerio [8]): Active

C[C@@]12CC[C@@H]3[C@@](CC[C@H]4[C@@]3(C)CCC[C@@]4(C)C(=O)N3CCN(C(=O)COCC(=O)O)CC3)(CC1=O)C2
Activity (Danio rerio [5]): Active

COc1cccc(C(=O)N2CCN(C(=O)[C@]3(C)CCC[C@@]4(C)[C@@H]5CC[C@@]6(C)C[C@]5(CC[C@@H]43)CC6=O)CC2)c1OC
Survival (Danio rerio [2]): 86%

C[C@@]12CC[C@@H]3[C@@](CC[C@H]4[C@@]3(C)CCC[C@@]4(C)C(=O)N3CCN(C(=O)CCCC(=O)O)CC3)(CC1=O)C2
Activity (Danio rerio [5]): Active

C[C@@]12CC[C@@H]3[C@@](CC[C@H]4[C@@]3(C)CCC[C@@]4(C)C(=O)N3CCNCC3)(CC1=O)C2
Activity (Danio rerio [5]): Active

C[C@@]12CC[C@@H]3[C@@](CC[C@H]4[C@@]3(C)CCC[C@@]4(C)C(=O)N3CCN(C(=O)CCC(=O)O)CC3)(CC1=O)C2
survival at 15 µM (Danio rerio [9]): 50%
Activity (Danio rerio [5]): Active
survival at 5 µM (Danio rerio [3]): 50%
